Entries after “also recorded” stand apart in the source; their conditions may differ.
Test system: T1, Kras G12D protein / SOS1 exchange domain
T1 construct: Cytoskeleton, Inc. (SOS1 exchange domain only) GE02
Assay: Kras-SOS exchange assay (MANT-GDP)
Assay type: biochemical
Conditions: for normalized signal, Kras-SOS exchange (Figure 4c PhP072 irradiation): Php072 500 uM
Method: MANT-GDP loading assay: Kras^G12D protein was first buffer exchanged into low magnesium buffer (20 mM HEPES-NaOH (pH 7.5), 50 mM NaCl, 0.5 mM MgCl2) using a NAP5 column (catalog no.: 17-0583-1, Cytiva). The proteins were then incubated with 20-fold molar excess of N-methylanthraniloyl (MANT)-GDP (catalog no.: 69244, Sigma-Aldrich) in loading buffer (50 mM NaCl, 20 mM HEPES-NaOH [pH 7.5], 0.5 mM MgCl2, 10 mM EDTA, and 1 mM Dithiothreitol (DTT)) in a total volume of 200 μL at 20 °C for 90 min. The reaction was stopped by adding MgCl2 to a final concentration of 10 mM, then incubated at 20 °C for 30 min. The unbound MANT-GDP was removed using the NAP-5 column equilibrated with nucleotide exchange buffer (40 mM HEPES-NaOH (pH 7.5), 50 mM NaCl, 10 mM MgCl2, 2 mM DTT).
MANT-GDP exchange assay: First the MANT-GDP bound Kras G12D protein (in a final 1 μM molar concentration) was preincubated with the inhibitor molecules for 60 min. After the preincubation the samples were exposed to UV light for 10 min with a wavelength of 366 nm. The UV-treated MANT-GDP Kras-inhibitor mix was loaded into a black 384 well microplate. The nucleotide exchange reaction was initiated by adding 100 fold molar excess of GppNHp (catalog no.: G0635, Sigma-Aldrich), a non-hydrolyzable GTP analog and the SOS1 exchange domain (catalog no.: GE02, Cytoskeleton, Inc.) protein in 0.5 μM final concentration. The change in fluorescence intensity was measured every 30 s in room temperature for 60 min on an EnSpire plate reader (PerkinElmer, Inc.). The measured fluorescence values were fitted to a single exponential function by using GraphPad Prism 8 software.

## Cc1ncc(CO)c(CNC(=O)CCC2(C)N=N2)c1O [PhP072, Cc1ncc(CO)c(c1O)CNC(=O)CCC2(C)N=N2]
Time 30 sec
  normalized signal, Kras-SOS exchange (Figure 4c PhP072 irradiation): 0.9874
Time 60 sec
  normalized signal, Kras-SOS exchange (Figure 4c PhP072 irradiation): 0.984
Time 90 sec
  normalized signal, Kras-SOS exchange (Figure 4c PhP072 irradiation): 0.9869
Time 120 sec
  normalized signal, Kras-SOS exchange (Figure 4c PhP072 irradiation): 0.9755
Time 210 sec
  normalized signal, Kras-SOS exchange (Figure 4c PhP072 irradiation): 0.9893
Time 240 sec
  normalized signal, Kras-SOS exchange (Figure 4c PhP072 irradiation): 1.005
Time 270 sec
  normalized signal, Kras-SOS exchange (Figure 4c PhP072 irradiation): 0.9931
Time 300 sec
  normalized signal, Kras-SOS exchange (Figure 4c PhP072 irradiation): 0.9815
Time 330 sec
  normalized signal, Kras-SOS exchange (Figure 4c PhP072 irradiation): 0.9652
Time 360 sec
  normalized signal, Kras-SOS exchange (Figure 4c PhP072 irradiation): 0.9672
Time 390 sec
  normalized signal, Kras-SOS exchange (Figure 4c PhP072 irradiation): 0.9659
Time 420 sec
  normalized signal, Kras-SOS exchange (Figure 4c PhP072 irradiation): 0.9589
Time 450 sec
  normalized signal, Kras-SOS exchange (Figure 4c PhP072 irradiation): 0.9736
Time 480 sec
  normalized signal, Kras-SOS exchange (Figure 4c PhP072 irradiation): 0.978
Time 510 sec
  normalized signal, Kras-SOS exchange (Figure 4c PhP072 irradiation): 0.9558
Time 540 sec
  normalized signal, Kras-SOS exchange (Figure 4c PhP072 irradiation): 0.9578
Time 570 sec
  normalized signal, Kras-SOS exchange (Figure 4c PhP072 irradiation): 0.9776
Time 600 sec
  normalized signal, Kras-SOS exchange (Figure 4c PhP072 irradiation): 0.972
Time 630 sec
  normalized signal, Kras-SOS exchange (Figure 4c PhP072 irradiation): 0.974
Time 660 sec
  normalized signal, Kras-SOS exchange (Figure 4c PhP072 irradiation): 0.9647
Time 690 sec
  normalized signal, Kras-SOS exchange (Figure 4c PhP072 irradiation): 0.9564
Time 720 sec
  normalized signal, Kras-SOS exchange (Figure 4c PhP072 irradiation): 0.9623
Time 750 sec
  normalized signal, Kras-SOS exchange (Figure 4c PhP072 irradiation): 0.9619
Time 780 sec
  normalized signal, Kras-SOS exchange (Figure 4c PhP072 irradiation): 0.9405
Time 810 sec
  normalized signal, Kras-SOS exchange (Figure 4c PhP072 irradiation): 0.9601
Time 840 sec
  normalized signal, Kras-SOS exchange (Figure 4c PhP072 irradiation): 0.9458
Time 870 sec
  normalized signal, Kras-SOS exchange (Figure 4c PhP072 irradiation): 0.9534
Time 900 sec
  normalized signal, Kras-SOS exchange (Figure 4c PhP072 irradiation): 0.9403
Time 930 sec
  normalized signal, Kras-SOS exchange (Figure 4c PhP072 irradiation): 0.9459
Time 960 sec
  normalized signal, Kras-SOS exchange (Figure 4c PhP072 irradiation): 0.9381
Time 990 sec
  normalized signal, Kras-SOS exchange (Figure 4c PhP072 irradiation): 0.9447
Time 1020 sec
  normalized signal, Kras-SOS exchange (Figure 4c PhP072 irradiation): 0.9591
Time 1050 sec
  normalized signal, Kras-SOS exchange (Figure 4c PhP072 irradiation): 0.9368
Time 1080 sec
  normalized signal, Kras-SOS exchange (Figure 4c PhP072 irradiation): 0.9576
Time 1110 sec
  normalized signal, Kras-SOS exchange (Figure 4c PhP072 irradiation): 0.9476
Time 1140 sec
  normalized signal, Kras-SOS exchange (Figure 4c PhP072 irradiation): 0.9304
Time 1170 sec
  normalized signal, Kras-SOS exchange (Figure 4c PhP072 irradiation): 0.9558
Time 1200 sec
  normalized signal, Kras-SOS exchange (Figure 4c PhP072 irradiation): 0.9429
Time 1230 sec
  normalized signal, Kras-SOS exchange (Figure 4c PhP072 irradiation): 0.9405
Time 1260 sec
  normalized signal, Kras-SOS exchange (Figure 4c PhP072 irradiation): 0.9391
Time 1290 sec
  normalized signal, Kras-SOS exchange (Figure 4c PhP072 irradiation): 0.9393
Time 1320 sec
  normalized signal, Kras-SOS exchange (Figure 4c PhP072 irradiation): 0.944
Time 1350 sec
  normalized signal, Kras-SOS exchange (Figure 4c PhP072 irradiation): 0.9654
Time 1380 sec
  normalized signal, Kras-SOS exchange (Figure 4c PhP072 irradiation): 0.9701
Time 1410 sec
  normalized signal, Kras-SOS exchange (Figure 4c PhP072 irradiation): 0.9426
Time 1440 sec
  normalized signal, Kras-SOS exchange (Figure 4c PhP072 irradiation): 0.9472
Time 1470 sec
  normalized signal, Kras-SOS exchange (Figure 4c PhP072 irradiation): 0.9361
Time 1500 sec
  normalized signal, Kras-SOS exchange (Figure 4c PhP072 irradiation): 0.939
Time 1530 sec
  normalized signal, Kras-SOS exchange (Figure 4c PhP072 irradiation): 0.9519
Time 1560 sec
  normalized signal, Kras-SOS exchange (Figure 4c PhP072 irradiation): 0.9436
Time 1590 sec
  normalized signal, Kras-SOS exchange (Figure 4c PhP072 irradiation): 0.9444
Time 1620 sec
  normalized signal, Kras-SOS exchange (Figure 4c PhP072 irradiation): 0.9461
Time 1650 sec
  normalized signal, Kras-SOS exchange (Figure 4c PhP072 irradiation): 0.9444
Time 1680 sec
  normalized signal, Kras-SOS exchange (Figure 4c PhP072 irradiation): 0.9402
Time 1710 sec
  normalized signal, Kras-SOS exchange (Figure 4c PhP072 irradiation): 0.948
Time 1740 sec
  normalized signal, Kras-SOS exchange (Figure 4c PhP072 irradiation): 0.9364
Time 1770 sec
  normalized signal, Kras-SOS exchange (Figure 4c PhP072 irradiation): 0.939
Time 1800 sec
  normalized signal, Kras-SOS exchange (Figure 4c PhP072 irradiation): 0.9328
Time 1830 sec
  normalized signal, Kras-SOS exchange (Figure 4c PhP072 irradiation): 0.9307
Time 1860 sec
  normalized signal, Kras-SOS exchange (Figure 4c PhP072 irradiation): 0.9265
Time 1890 sec
  normalized signal, Kras-SOS exchange (Figure 4c PhP072 irradiation): 0.9579
Time 1920 sec
  normalized signal, Kras-SOS exchange (Figure 4c PhP072 irradiation): 0.9312
Time 1950 sec
  normalized signal, Kras-SOS exchange (Figure 4c PhP072 irradiation): 0.9362
Time 1980 sec
  normalized signal, Kras-SOS exchange (Figure 4c PhP072 irradiation): 0.9324
Time 2010 sec
  normalized signal, Kras-SOS exchange (Figure 4c PhP072 irradiation): 0.9475
Time 2040 sec
  normalized signal, Kras-SOS exchange (Figure 4c PhP072 irradiation): 0.9452
Time 2070 sec
  normalized signal, Kras-SOS exchange (Figure 4c PhP072 irradiation): 0.9435
Time 2100 sec
  normalized signal, Kras-SOS exchange (Figure 4c PhP072 irradiation): 0.9537
Time 2130 sec
  normalized signal, Kras-SOS exchange (Figure 4c PhP072 irradiation): 0.9458
Time 2160 sec
  normalized signal, Kras-SOS exchange (Figure 4c PhP072 irradiation): 0.9297
Time 2190 sec
  normalized signal, Kras-SOS exchange (Figure 4c PhP072 irradiation): 0.9168
Time 2220 sec
  normalized signal, Kras-SOS exchange (Figure 4c PhP072 irradiation): 0.941
Time 2250 sec
  normalized signal, Kras-SOS exchange (Figure 4c PhP072 irradiation): 0.934
Time 2280 sec
  normalized signal, Kras-SOS exchange (Figure 4c PhP072 irradiation): 0.9076
Time 2310 sec
  normalized signal, Kras-SOS exchange (Figure 4c PhP072 irradiation): 0.9404
Time 2340 sec
  normalized signal, Kras-SOS exchange (Figure 4c PhP072 irradiation): 0.9263
Time 2370 sec
  normalized signal, Kras-SOS exchange (Figure 4c PhP072 irradiation): 0.9501
Time 2400 sec
  normalized signal, Kras-SOS exchange (Figure 4c PhP072 irradiation): 0.9106
Time 2430 sec
  normalized signal, Kras-SOS exchange (Figure 4c PhP072 irradiation): 0.9173
Time 2460 sec
  normalized signal, Kras-SOS exchange (Figure 4c PhP072 irradiation): 0.928
Time 2490 sec
  normalized signal, Kras-SOS exchange (Figure 4c PhP072 irradiation): 0.9153
Time 2520 sec
  normalized signal, Kras-SOS exchange (Figure 4c PhP072 irradiation): 0.9464
Time 2550 sec
  normalized signal, Kras-SOS exchange (Figure 4c PhP072 irradiation): 0.9246
Time 2580 sec
  normalized signal, Kras-SOS exchange (Figure 4c PhP072 irradiation): 0.9142
Time 2910 sec
  normalized signal, Kras-SOS exchange (Figure 4c PhP072 irradiation): 0.92
Time 2940 sec
  normalized signal, Kras-SOS exchange (Figure 4c PhP072 irradiation): 0.9177
Time 2970 sec
  normalized signal, Kras-SOS exchange (Figure 4c PhP072 irradiation): 0.9062
Time 3000 sec
  normalized signal, Kras-SOS exchange (Figure 4c PhP072 irradiation): 0.928
Time 3030 sec
  normalized signal, Kras-SOS exchange (Figure 4c PhP072 irradiation): 0.9131
Time 3060 sec
  normalized signal, Kras-SOS exchange (Figure 4c PhP072 irradiation): 0.9065
Time 3090 sec
  normalized signal, Kras-SOS exchange (Figure 4c PhP072 irradiation): 0.9086
Time 3120 sec
  normalized signal, Kras-SOS exchange (Figure 4c PhP072 irradiation): 0.9109
Time 3150 sec
  normalized signal, Kras-SOS exchange (Figure 4c PhP072 irradiation): 0.9207
Time 3180 sec
  normalized signal, Kras-SOS exchange (Figure 4c PhP072 irradiation): 0.8921
Time 3210 sec
  normalized signal, Kras-SOS exchange (Figure 4c PhP072 irradiation): 0.9129
Time 3240 sec
  normalized signal, Kras-SOS exchange (Figure 4c PhP072 irradiation): 0.8834
Time 3270 sec
  normalized signal, Kras-SOS exchange (Figure 4c PhP072 irradiation): 0.9149
Time 3300 sec
  normalized signal, Kras-SOS exchange (Figure 4c PhP072 irradiation): 0.9074
Time 3330 sec
  normalized signal, Kras-SOS exchange (Figure 4c PhP072 irradiation): 0.9207
Prior to irradiation
  Effect on SOS1-mediated nucleotide exchange of KRas: little effect
Upon irradiation (366 nm, 10 min)
  Effect on SOS1-mediated nucleotide exchange of KRas: fully restores KRas function to the control level; also recorded: restore KRas function
